Source: ChEMBL document CHEMBL3112492, “Antiprotozoan lead discovery by aligning dry and wet screening: prediction, synthesis, and biological assay of novel quinoxalinones” (Bioorg Med Chem, 2014)
The source made the active and inactive calls. No cut-off for these calls is given here.

tested on: Leishmania braziliensis; experiment: Antiprotozoal activity against metacyclic promastigote stage of Leishmania braziliensis MHOM/PE/95/LQ2 assessed as growth inhibition after 72 hrs by Alamar Blue assay; type: functional, organism-based; conditions: not given

SMILES | growth inhibition (GI)
Br.O=C1CN(CCCCCN2CCc3ccccc3C2)c2ccc([N+](=O)[O-])cc2N1 | Dose-dependent effect
Br.O=C1CN(CCCCCN2CCCCCC2)c2ccc([N+](=O)[O-])cc2N1 | Dose-dependent effect
Br.CN(C)CCCCCN1CC(=O)N(C)c2cc([N+](=O)[O-])ccc21 | Dose-dependent effect

same assay, conditions: MHOM/PE/95/LQ2, 72 h

SMILES | IC50 [µg/mL]
Br.O=C1CN(CCCCCN2CCc3ccccc3C2)c2ccc([N+](=O)[O-])cc2N1 | 31.3
Br.O=C1CN(CCCCCN2CCCCCC2)c2ccc([N+](=O)[O-])cc2N1 | 39.3
Br.CN(C)CCCCCN1CC(=O)N(C)c2cc([N+](=O)[O-])ccc21 | 8.15

tested on: Trichomonas vaginalis; experiment: Trichomonastatic activity against Trichomonas vaginalis JH31A at 1 ug/ml after 48 hrs by Neubauer chamber analysis relative to control; type: functional; conditions: not given

SMILES | Activity [%]
Br.O=C1CN(CCCCCN2CCc3ccccc3C2)c2ccc([N+](=O)[O-])cc2N1 | 0
Br.O=C1CN(CCCCCN2CCCCCC2)c2ccc([N+](=O)[O-])cc2N1 | 0
Br.CN(C)CCCCCN1CC(=O)N(C)c2cc([N+](=O)[O-])ccc21 | 0

tested on: Trichomonas vaginalis; experiment: Trichomonastatic activity against Trichomonas vaginalis JH31A at 1 ug/ml after 24 hrs by Neubauer chamber analysis relative to control; type: functional; conditions: not given

SMILES | Activity [%]
Br.O=C1CN(CCCCCN2CCc3ccccc3C2)c2ccc([N+](=O)[O-])cc2N1 | 3.53
Br.O=C1CN(CCCCCN2CCCCCC2)c2ccc([N+](=O)[O-])cc2N1 | 2.35
Br.CN(C)CCCCCN1CC(=O)N(C)c2cc([N+](=O)[O-])ccc21 | 8.98

tested on: Toxoplasma gondii; experiment: Antiprotozoal activity against tachyzoite stage of Toxoplasma gondii RH assessed as viability at 200 uM after 4 hrs by trypan blue exclusion assay relative to control; type: functional; conditions: not given

SMILES | Activity [%]
Br.O=C1CN(CCCCCN2CCCCCC2)c2ccc([N+](=O)[O-])cc2N1 | 82
Br.CN(C)CCCCCN1CC(=O)N(C)c2cc([N+](=O)[O-])ccc21 | 90

tested on: Toxoplasma gondii; experiment: Antiprotozoal activity against tachyzoite stage of Toxoplasma gondii RH assessed as extrusion of cytoplasmic content by light microscopic analysis; type: functional, organism-based; conditions: not given

SMILES | Activity
Br.O=C1CN(CCCCCN2CCCCCC2)c2ccc([N+](=O)[O-])cc2N1 | Active

tested on: Toxoplasma gondii; experiment: Antiprotozoal activity against tachyzoite stage of Toxoplasma gondii RH assessed as viability at 500 uM after 4 hrs by trypan blue exclusion assay relative to control; type: functional; conditions: not given

SMILES | Activity [%]
Br.O=C1CN(CCCCCN2CCCCCC2)c2ccc([N+](=O)[O-])cc2N1 | 0
Br.CN(C)CCCCCN1CC(=O)N(C)c2cc([N+](=O)[O-])ccc21 | 93

tested on: J774; experiment: Cytotoxicity against mouse J774 cells at 1 ug/mL after 24 hrs by MTT assay; type: cell-based; conditions: j774, 24 h

SMILES | Activity [%]
Br.O=C1CN(CCCCCN2CCc3ccccc3C2)c2ccc([N+](=O)[O-])cc2N1 | 9.89
Br.O=C1CN(CCCCCN2CCCCCC2)c2ccc([N+](=O)[O-])cc2N1 | 0

tested on: J774; experiment: Cytotoxicity against mouse J774 cells at 10 ug/mL after 24 hrs by MTT assay; type: cell-based; conditions: j774, 24 h

SMILES | Activity [%]
Br.O=C1CN(CCCCCN2CCc3ccccc3C2)c2ccc([N+](=O)[O-])cc2N1 | 13.25
Br.O=C1CN(CCCCCN2CCCCCC2)c2ccc([N+](=O)[O-])cc2N1 | 5.78

tested on: Plasmodium falciparum; experiment: Antimalarial activity against intraerythrocytic asexual stage of Plasmodium falciparum 3D7 assessed as inhibition of [G-3H]-hypoxanthine uptake by semiautomated microdilution method; type: functional, organism-based; conditions: not given

SMILES | IC50 [µg/mL]
Br.O=C1CN(CCCCCN2CCc3ccccc3C2)c2ccc([N+](=O)[O-])cc2N1 | > 10
Br.O=C1CN(CCCCCN2CCCCCC2)c2ccc([N+](=O)[O-])cc2N1 | 5.72
Br.CN(C)CCCCCN1CC(=O)N(C)c2cc([N+](=O)[O-])ccc21 | > 10

tested on: Trichomonas vaginalis; experiment: Trichomonastatic activity against Trichomonas vaginalis JH31A at 10 ug/ml after 48 hrs by Neubauer chamber analysis relative to control; type: functional; conditions: not given

SMILES | Activity [%]
Br.O=C1CN(CCCCCN2CCc3ccccc3C2)c2ccc([N+](=O)[O-])cc2N1 | 44.06
Br.O=C1CN(CCCCCN2CCCCCC2)c2ccc([N+](=O)[O-])cc2N1 | 0
Br.CN(C)CCCCCN1CC(=O)N(C)c2cc([N+](=O)[O-])ccc21 | 11.26

tested on: Acanthamoeba castellanii; experiment: Antiprotozoal activity against trophozoite stage of Acanthamoeba castellanii Neff ATCC 30010 after 72 to 120 hrs by Alamar Blue assay; type: functional; conditions: Acanthamoeba castellanii str. Neff

SMILES | Activity
Br.O=C1CN(CCCCCN2CCc3ccccc3C2)c2ccc([N+](=O)[O-])cc2N1 | inactive
Br.O=C1CN(CCCCCN2CCCCCC2)c2ccc([N+](=O)[O-])cc2N1 | inactive
Br.CN(C)CCCCCN1CC(=O)N(C)c2cc([N+](=O)[O-])ccc21 | inactive

tested on: not listed separately; experiment: Inhibition of ferriprotoporphyrin-9 biocrystallization by micro-ELISA; conditions: not given

SMILES | IC50 [µg/mL]
Br.O=C1CN(CCCCCN2CCc3ccccc3C2)c2ccc([N+](=O)[O-])cc2N1 | 1530
Br.O=C1CN(CCCCCN2CCCCCC2)c2ccc([N+](=O)[O-])cc2N1 | > 2000
Br.CN(C)CCCCCN1CC(=O)N(C)c2cc([N+](=O)[O-])ccc21 | > 2000

tested on: Trypanosoma cruzi; experiment: Trypanocidal activity against epimastigote stage of Trypanosoma cruzi CL Brener at 100 ug/mL after 72 hrs by beta-galactosidase reporter gene assay relative to control; type: functional; conditions: not given

SMILES | Activity [%]
Br.O=C1CN(CCCCCN2CCc3ccccc3C2)c2ccc([N+](=O)[O-])cc2N1 | 87.83
Br.O=C1CN(CCCCCN2CCCCCC2)c2ccc([N+](=O)[O-])cc2N1 | 97.73

tested on: Trypanosoma cruzi; experiment: Trypanocidal activity against epimastigote stage of Trypanosoma cruzi CL Brener at 10 ug/mL after 72 hrs by beta-galactosidase reporter gene assay relative to control; type: functional; conditions: not given

SMILES | Activity [%]
Br.O=C1CN(CCCCCN2CCc3ccccc3C2)c2ccc([N+](=O)[O-])cc2N1 | 56.77
Br.O=C1CN(CCCCCN2CCCCCC2)c2ccc([N+](=O)[O-])cc2N1 | 23.84

tested on: Toxoplasma gondii; experiment: Antiprotozoal activity against tachyzoite stage of Toxoplasma gondii RH assessed as viability at 100 uM after 4 hrs by trypan blue exclusion assay relative to control; type: functional; conditions: not given

SMILES | Activity [%]
Br.O=C1CN(CCCCCN2CCCCCC2)c2ccc([N+](=O)[O-])cc2N1 | 88
Br.CN(C)CCCCCN1CC(=O)N(C)c2cc([N+](=O)[O-])ccc21 | 81

tested on: Trichomonas vaginalis; experiment: Trichomonastatic activity against Trichomonas vaginalis JH31A at 10 ug/ml after 24 hrs by Neubauer chamber analysis relative to control; type: functional; conditions: not given

SMILES | Activity [%]
Br.O=C1CN(CCCCCN2CCc3ccccc3C2)c2ccc([N+](=O)[O-])cc2N1 | 83.76
Br.O=C1CN(CCCCCN2CCCCCC2)c2ccc([N+](=O)[O-])cc2N1 | 12.94
Br.CN(C)CCCCCN1CC(=O)N(C)c2cc([N+](=O)[O-])ccc21 | 45.71

tested on: Trypanosoma cruzi; experiment: Trypanocidal activity against epimastigote stage of Trypanosoma cruzi CL Brener at 1 ug/mL after 72 hrs by beta-galactosidase reporter gene assay relative to control; type: functional; conditions: not given

SMILES | Activity [%]
Br.O=C1CN(CCCCCN2CCc3ccccc3C2)c2ccc([N+](=O)[O-])cc2N1 | 12.49
Br.O=C1CN(CCCCCN2CCCCCC2)c2ccc([N+](=O)[O-])cc2N1 | 8.35

tested on: Trichomonas vaginalis; experiment: Trichomonacidal activity against Trichomonas vaginalis JH31A at 100 ug/ml after 24 hrs by Neubauer chamber analysis relative to control; type: functional; conditions: not given

SMILES | Activity [%]
Br.O=C1CN(CCCCCN2CCc3ccccc3C2)c2ccc([N+](=O)[O-])cc2N1 | 100
Br.O=C1CN(CCCCCN2CCCCCC2)c2ccc([N+](=O)[O-])cc2N1 | 100
Br.CN(C)CCCCCN1CC(=O)N(C)c2cc([N+](=O)[O-])ccc21 | 100

tested on: Toxoplasma gondii; experiment: Antiprotozoal activity against tachyzoite stage of Toxoplasma gondii RH assessed as viability at 1 mM after 4 hrs by trypan blue exclusion assay relative to control; type: functional; conditions: not given

SMILES | Activity [%]
Br.O=C1CN(CCCCCN2CCCCCC2)c2ccc([N+](=O)[O-])cc2N1 | 0
Br.CN(C)CCCCCN1CC(=O)N(C)c2cc([N+](=O)[O-])ccc21 | 81

tested on: J774; experiment: Cytotoxicity against mouse J774 cells at 100 ug/mL after 24 hrs by MTT assay; type: cell-based; conditions: j774, 24 h

SMILES | Activity [%]
Br.O=C1CN(CCCCCN2CCc3ccccc3C2)c2ccc([N+](=O)[O-])cc2N1 | 100
Br.O=C1CN(CCCCCN2CCCCCC2)c2ccc([N+](=O)[O-])cc2N1 | 59.14

tested on: Trichomonas vaginalis; experiment: Trichomonacidal activity against Trichomonas vaginalis JH31A at 100 ug/ml after 48 hrs by Neubauer chamber analysis relative to control; type: functional; conditions: not given

SMILES | Activity [%]
Br.O=C1CN(CCCCCN2CCc3ccccc3C2)c2ccc([N+](=O)[O-])cc2N1 | 100
Br.O=C1CN(CCCCCN2CCCCCC2)c2ccc([N+](=O)[O-])cc2N1 | 100
Br.CN(C)CCCCCN1CC(=O)N(C)c2cc([N+](=O)[O-])ccc21 | 100
